Reference: ChEMBL document CHEMBL3832761, “MMV Pathogen Box Bioactivity Data” (2017)

How the values were obtained:
[1] = tested on: HepG2; experiment: Cytotoxicity data HepG2 CC20 (uM); assay type: functional
[2] = tested on: Plasmodium berghei; experiment: Antimalarial activity: Liver Stage Plasmodium berghei sporozoite Luciferase assay IC50 (uM); assay type: functional, organism-based
[3] = tested on: Plasmodium falciparum; experiment: Antimalarial activity: Asexual Blood Stage Plasmodium falciparum W2 IC50 (uM); assay type: functional, organism-based
[4] = tested on: Plasmodium berghei; experiment: Antimalarial activity: Liver Stage Plasmodium berghei sporozoite Luciferase assay: inhibition at 10 uM (%); assay type: functional
[5] = tested on: Plasmodium falciparum; experiment: Antimalarial activity: Asexual Blood Stage Plasmodium falciparum Dd2 IC50 (uM); assay type: functional, organism-based
[6] = tested on: Plasmodium falciparum; experiment: Antimalarial activity: Asexual Blood Stage Plasmodium falciparum 3D7 IC50 (uM); assay type: functional, organism-based
[7] = tested on: HepG2; experiment: HepG2 CC50 (uM) Cytotoxicity; assay type: functional; details: Homo sapiens
[8] = tested on: Plasmodium falciparum; experiment: Antimalarial activity: Gametocytes Plasmodium falciparum NF54 Gametocytes Stage V: inhibition at 10 uM (%); assay type: functional

Row | Compound | CC20 [1] [µM] | IC50 [2] [µM] | IC50 [3] [µM] | Inhibition [4] [%] | IC50 [5] [µM] | IC50 [6] [µM] | CC50 [7] [µM] | Inhibition [8] [%]
1 | COc1cccc(-c2cc3c(Nc4cccnc4)nccc3[nH]2)c1 | 2.29 | > 10 | 2.53 | 77 | 2.49 | 1.28 | > 10 | 6
2 | CC(C)(CN)c1nc(-c2ccc(Cl)c(O)c2)c(-c2ccnc(N)n2)[nH]1 | 5.77 | 0.32 | 1.05 | 100 | 0.19 | 0.41 | > 10 | 9
3 | Cc1nc(-c2cccc(NCc3ccccc3)c2)[nH]c1C | 27.7 | 4.59 | 2.59 | 100 | 5.03 | 1.94 | > 10 | 16
4 | FC(F)(F)c1cccc(-c2nc3c(NCc4ccncc4)nccc3[nH]2)c1 | 14.6 | > 10 | 1.04 | 62 | 0.78 | 0.51 | > 10 | 11
5 | O=C(Nc1ccc(N2CCNCC2)nc1)c1oc(-c2ccccc2)nc1C(F)(F)F | 13.4 | 2.55 | 3 | 78 | 1.64 | 1.22 | > 10 | 44
6 | Cc1nnc(NC(=O)c2cn(-c3ccccc3)nc2-c2ccccc2C)o1 | 0.92 | 0.17 | 0.68 | 100 | 1.5 | 0.71 | > 10 | 16
7 | Clc1cccc(C(c2ccc(CN3CCNCC3)cc2)n2ccnc2)c1 (stereo not drawn) | 15.2 | > 10 | 1.36 | 83 | 1.53 | 1.63 | > 10 | 36
8 | O=C(NC1CCN(c2ccnc3ccccc23)C1)c1cccc(C(F)(F)F)c1 (stereo not drawn) | 5.82 | 6.54 | 2.06 | 99 | 0.78 | 0.71 | > 10 | 1
9 | O=C(Nc1cccc(Cl)c1)c1cnc(N2CCN(c3ccncc3)CC2)c(Cl)c1 | 2.68 | 2.35 | 1.55 | 99 | 1.33 | 0.83 | > 10 | 51
10 | Cc1ccc(Oc2ccc(NC(=O)CNc3ccccc3N3CCCC3=O)cc2)cc1 | 17.5 | 9.1 | 0.64 | 89 | 0.6 | 0.48 | 9.8 | 0
11 | Cc1c[nH]c(CCNC(=O)c2cc(-c3ccc(Cl)cc3)cs2)n1 | 6.9 | 8.57 | 2.86 | 85 | 2.02 | 0.81 | > 10 | 15
12 | CC1CC1C(=O)NC1CCN(CC2(c3ccccc3)CCCCC2)CC1 (stereo not drawn) | >80 | 2.25 | 0.31 | 100 | 0.92 | 0.58 | > 10 | 24
13 | NCC(=O)N1CCn2c(nc(-c3ccccc3)c2Nc2ccc3c(c2)OCO3)C1 | >80 | 3.78 | 0.54 | 100 | 0.89 | 0.64 | > 10 | 56
14 | O=C1Nc2ccc(Br)cc2C12NCCc1c2[nH]c2ccccc12 (stereo not drawn) | 19.9 | > 10 | 0.62 | 57 | 0.41 | 0.51 | > 10 | 38
15 | CN(C)CCNC(=O)N1CCCN(c2ncnc3cc(-c4ccccc4)sc23)CC1 | 6.21 | 1.97 | 3.85 | 73 | 2.91 | 1.58 | > 10 | 5
16 | CNC(=O)C1Cc2c([nH]c3cc(Cl)ccc23)C2(CCN(CCc3ccccc3)CC2)N1 (stereo not drawn) | 10 | 4.51 | 4.55 | 99 | 1.95 | 0.86 | > 10 | 33
17 | COc1cncc(-c2cncc(N3CCN(c4ccncc4)CC3)n2)c1 | 4.65 | > 7.5 | 0.18 | 64 | 0.15 | 0.1 | > 10 | 12
18 | Cc1cccc(C(=O)Nc2ccnc(N(C)C3CCN(CC(C)C)CC3)c2)c1 | 13.7 | > 10 | 9.25 | 66 | 5.18 | 2.1 | > 10 | 10
19 | O=C1N(Cc2cc3ccccc3s2)CC2CN(Cc3ccccc3)CCN12 (stereo not drawn) | 26.4 | 0.2 | 1.33 | 100 | 1.26 | 1.16 | > 10 | 53
20 | OCCc1ccc(Nc2nccc(-c3nnc4ccccn34)n2)cc1 | 1.67 | 1.47 | 0.69 | 99 | 1.63 | 1.08 | 8.1 | 11
21 | CC(C)C(NC(=O)Cc1cccc2ccccc12)C(=O)Nc1cccc(C#N)c1 (stereo not drawn) | 14 | 9.15 | 1.14 | 76 | 3.1 | 0.96 | > 10 | 5
22 | Cc1ccc(S(=O)(=O)N2CCN(C(=O)c3cc(-c4ccccc4)n[nH]3)CC2)cc1 | >80 | 0.63 | 0.4 | 92 | 1.73 | 1.04 | > 10 | 17
23 | CCOc1ccccc1NC(C)C(=O)Nc1cc(C(F)(F)F)ccc1N1CCOCC1 (stereo not drawn) | 29.8 | > 10 | 0.79 | 56 | 0.61 | 0.42 | > 10 | 39
24 | Cc1ccc(S(=O)(=O)n2cc(-c3ccnc(N)c3)c3cc(Br)cnc32)cc1 | 5.28 | > 6 | 1.3 | 99 | 1.47 | 0.63 | > 6 | 17
25 | Cc1cc(C(=O)Nc2ccc(-c3ccccc3)cc2)no1 | >80 | > 10 | 0.54 | 97 | 1.41 | 0.82 | > 10 | 24
26 | CCOc1ccc(-c2nc(NC(=O)CS(=O)(=O)c3ccccc3)sc2C)cc1 | 20 | > 10 | 1.97 | 59 | 1.8 | 0.66 | > 10 | 17
